38 compounds from US8299111B2, “Compounds which modulate the CB2 receptor” (Boehringer Ingelheim International GmbH, priority 2006, dated 2012) can be followed below.

The target in the assay is T1, human CB2R (Homo sapiens, UniProt P34972).
T1 construct: host or cells: CHO cells
T1 sequence (P34972 whole entry): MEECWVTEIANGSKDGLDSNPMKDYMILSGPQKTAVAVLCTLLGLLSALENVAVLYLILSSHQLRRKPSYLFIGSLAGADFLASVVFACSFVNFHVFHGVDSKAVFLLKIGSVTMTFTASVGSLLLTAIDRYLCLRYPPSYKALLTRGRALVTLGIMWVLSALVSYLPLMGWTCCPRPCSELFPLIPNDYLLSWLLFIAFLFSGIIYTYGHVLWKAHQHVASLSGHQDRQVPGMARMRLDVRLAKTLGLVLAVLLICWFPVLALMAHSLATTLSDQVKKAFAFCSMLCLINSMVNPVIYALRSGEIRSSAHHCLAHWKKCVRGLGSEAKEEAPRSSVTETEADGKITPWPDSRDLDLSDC
Briefly: CB2R mediated modulation of cAMP synthesis. The class given is cell-based. As to conditions: found through the use of the above described assays (binding and cAMP); CHO cells expressing human CB2R, forskolin-stimulated cAMP. An outline of the steps: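 EC50 values reflect inhibition of cAMP made in response to 10 uM forskolin (with 1 mM IBMX, 0.25% BSA) over 30 min at 37 °C in human CB2R-expressing CHO cells. The window runs from forskolin alone to 1 uM CP55940; curves fitted with a four-parameter logistic model.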
Turning to `CC(C)(C(=O)Nc1ccc(C(F)(F)F)cn1)S(=O)(=O)c1ccc(Cl)cc1` [2-(4-Chloro-benzenesulfonyl)-2-methyl-N-(5-trifluoromethyl-pyridin-2-yl)-propionamide], the agonistic activity result is listed as “agonistic activity”. Under `Cc1cccc(NC(=O)C(C)(C)S(=O)(=O)c2ccc(Cl)cc2)n1` [2-(4-Chloro-benzenesulfonyl)-2-methyl-N-(6-methyl-pyridin-2-yl)-propionamide] stands “agonistic activity”; under `CC(C)(C(=O)Nc1ccc(Oc2ccccc2)nc1)S(=O)(=O)c1ccc(Cl)cc1` [2-(4-Chloro-benzenesulfonyl)-2-methyl-N-(6-phenoxy-pyridin-3-yl)-propionamide], “agonistic activity”. In the case of `CC(C)(C(=O)Nc1cccc(C(F)(F)F)n1)S(=O)(=O)c1ccc(Cl)cc1` [2-(4-Chloro-benzenesulfonyl)-2-methyl-N-(6-trifluoromethyl-pyridin-2-yl)-propionamide], the agonistic activity result is “agonistic activity”.

On to `CC(C)(C(=O)Nc1ncc(C2CCOCC2)s1)S(=O)(=O)c1ccc(Cl)cc1` [2-(4-Chloro-benzenesulfonyl)-2-methyl-N-[5-(tetrahydro-pyran-4-yl)-thiazol-2-yl]-propionamide], for which the agonistic activity result is reported as “agonistic activity”. In the case of `CC(C)(C(=O)Nc1cccc2ccccc12)S(=O)(=O)c1ccc(Cl)cc1` [2-(4-Chloro-benzenesulfonyl)-2-methyl-N-naphthalen-1-yl-propionamide], the agonistic activity entry is “agonistic activity”.

For `CC(C)(C(=O)Nc1ccc2ccccc2c1)S(=O)(=O)c1ccc(Cl)cc1` [2-(4-Chloro-benzenesulfonyl)-2-methyl-N-naphthalen-2-yl-propionamide], the agonistic activity entry is “agonistic activity”. The same measure for `CC(C)(C(=O)Nc1ccccn1)S(=O)(=O)c1ccc(Cl)cc1` [2-(4-Chloro-benzenesulfonyl)-2-methyl-N-pyridin-2-yl-propionamide]: “agonistic activity”. Consider `CC(C)(C(=O)Nc1cccnc1)S(=O)(=O)c1ccc(Cl)cc1` [2-(4-Chloro-benzenesulfonyl)-2-methyl-N-pyridin-3-yl-propionamide], for which the agonistic activity entry is “agonistic activity”. Under `CC(C)(C(=O)Nc1ccc2ccccc2n1)S(=O)(=O)c1ccc(Cl)cc1` [2-(4-Chloro-benzenesulfonyl)-2-methyl-N-quinolin-2-yl-propionamide] stands “agonistic activity”; under `CC(C)(C(=O)Nc1cnc2ccccc2c1)S(=O)(=O)c1ccc(Cl)cc1` [2-(4-Chloro-benzenesulfonyl)-2-methyl-N-quinolin-3-yl-propionamide], “agonistic activity”; under `Cc1c(-c2ccccc2)nn(C)c1NC(=O)C(C)(C)S(=O)(=O)c1ccc(Cl)cc1` [2-(4-Chloro-benzenesulfonyl)-N-(2,4-dimethyl-5-phenyl-2H-pyrazol-3-yl)-2-methyl-propionamide], “agonistic activity”.

As to `Cc1cc(NC(=O)C(C)(C)S(=O)(=O)c2ccc(Cl)cc2)n(C)n1` [2-(4-Chloro-benzenesulfonyl)-N-(2,5-dimethyl-2H-pyrazol-3-yl)-2-methyl-propionamide], the agonistic activity entry is “agonistic activity”. Under `CC(C)(C(=O)Nc1ccccc1Cl)S(=O)(=O)c1ccc(Cl)cc1` [2-(4-Chloro-benzenesulfonyl)-N-(2-chloro-phenyl)-2-methyl-propionamide] stands “agonistic activity”. Regarding `Cc1noc(NC(=O)C(C)(C)S(=O)(=O)c2ccc(Cl)cc2)c1C` [2-(4-Chloro-benzenesulfonyl)-N-(3,4-dimethyl-isoxazol-5-yl)-2-methyl-propionamide], the agonistic activity result is reported as “agonistic activity”.

With `CC(C)(C(=O)Nc1cccc(Cl)c1)S(=O)(=O)c1ccc(Cl)cc1` [2-(4-Chloro-benzenesulfonyl)-N-(3-chloro-phenyl)-2-methyl-propionamide], the agonistic activity entry is “agonistic activity”.

As for `CC(C)c1cc(NC(=O)C(C)(C)S(=O)(=O)c2ccc(Cl)cc2)on1` [2-(4-Chloro-benzenesulfonyl)-N-(3-isopropyl-isoxazol-5-yl)-2-methyl-propionamide], the agonistic activity result is “agonistic activity”.

As for `Cc1onc(NC(=O)C(C)(C)S(=O)(=O)c2ccc(Cl)cc2)c1C` [2-(4-Chloro-benzenesulfonyl)-N-(4,5-dimethyl-isoxazol-3-yl)-2-methyl-propionamide], the agonistic activity entry is “agonistic activity”.

In the case of `Cc1nc(NC(=O)C(C)(C)S(=O)(=O)c2ccc(Cl)cc2)sc1C` [2-(4-Chloro-benzenesulfonyl)-N-(4,5-dimethyl-thiazol-2-yl)-2-methyl-propionamide], the agonistic activity entry is “agonistic activity”.

Regarding `CC(C)(C(=O)Nc1nc(-c2ccccc2)c(-c2ccccc2)s1)S(=O)(=O)c1ccc(Cl)cc1` [2-(4-Chloro-benzenesulfonyl)-N-(4,5-diphenyl-thiazol-2-yl)-2-methyl-propionamide], the agonistic activity entry is reported as “agonistic activity”. As to `CC(C)(C(=O)Nc1ccc(Cl)cc1)S(=O)(=O)c1ccc(Cl)cc1` [2-(4-Chloro-benzenesulfonyl)-N-(4-chloro-phenyl)-2-methyl-propionamide], the agonistic activity result is reported as “agonistic activity”.

Regarding `CC(C)(C(=O)Nc1nc(C2CCCCC2)cs1)S(=O)(=O)c1ccc(Cl)cc1` [2-(4-Chloro-benzenesulfonyl)-N-(4-cyclohexyl-thiazol-2-yl)-2-methyl-propionamide], the agonistic activity result was “agonistic activity”. Under `CC(C)(C(=O)Nc1nc(C2CC2)cs1)S(=O)(=O)c1ccc(Cl)cc1` [2-(4-Chloro-benzenesulfonyl)-N-(4-cyclopropyl-thiazol-2-yl)-2-methyl-propionamide] stands “agonistic activity”. As to `CCc1c(C)noc1NC(=O)C(C)(C)S(=O)(=O)c1ccc(Cl)cc1` [2-(4-Chloro-benzenesulfonyl)-N-(4-ethyl-3-methyl-isoxazol-5-yl)-2-methyl-propionamide], the agonistic activity result is “agonistic activity”. As to `CCc1ccnc(NC(=O)C(C)(C)S(=O)(=O)c2ccc(Cl)cc2)c1` [2-(4-Chloro-benzenesulfonyl)-N-(4-ethyl-pyridin-2-yl)-2-methyl-propionamide], the agonistic activity entry was “agonistic activity”.

Turning to `CC(C)(C(=O)Nc1ncc(C#N)s1)S(=O)(=O)c1ccc(Cl)cc1` [2-(4-Chloro-benzenesulfonyl)-N-(5-cyano-thiazol-2-yl)-2-methyl-propionamide], the agonistic activity result is on record as “agonistic activity”.

Take `Cn1nc(C2CCCCC2)cc1NC(=O)C(C)(C)S(=O)(=O)c1ccc(Cl)cc1` [2-(4-Chloro-benzenesulfonyl)-N-(5-cyclohexyl-2-methyl-2H-pyrazol-3-yl)-2-methyl-propionamide]: the agonistic activity result is reported as “agonistic activity”.

In the case of `Cn1nc(C2CCCC2)cc1NC(=O)C(C)(C)S(=O)(=O)c1ccc(Cl)cc1` [2-(4-Chloro-benzenesulfonyl)-N-(5-cyclopentyl-2-methyl-2H-pyrazol-3-yl)-2-methyl-propionamide], the agonistic activity entry is reported as “agonistic activity”.

On to `Cn1nc(C2CC2)cc1NC(=O)C(C)(C)S(=O)(=O)c1ccc(Cl)cc1` [2-(4-Chloro-benzenesulfonyl)-N-(5-cyclopropyl-2-methyl-2H-pyrazol-3-yl)-2-methyl-propionamide], for which the agonistic activity result is recorded as “agonistic activity”.

`CCc1sc(NC(=O)C(C)(C)S(=O)(=O)c2ccc(Cl)cc2)nc1-c1ccccc1` [2-(4-Chloro-benzenesulfonyl)-N-(5-ethyl-4-phenyl-thiazol-2-yl)-2-methyl-propionamide]: the agonistic activity result is on record as “agonistic activity”. Under `CC(C)c1cc(NC(=O)C(C)(C)S(=O)(=O)c2ccc(Cl)cc2)n(C)n1` [2-(4-Chloro-benzenesulfonyl)-N-(5-isopropyl-2-methyl-2H-pyrazol-3-yl)-2-methyl-propionamide] stands “agonistic activity”; under `CC(C)c1cnc(NC(=O)C(C)(C)S(=O)(=O)c2ccc(Cl)cc2)s1` [2-(4-Chloro-benzenesulfonyl)-N-(5-isopropyl-thiazol-2-yl)-2-methyl-propionamide], “agonistic activity”; under `COc1ccc(NC(=O)C(C)(C)S(=O)(=O)c2ccc(Cl)cc2)cn1` [2-(4-Chloro-benzenesulfonyl)-N-(6-methoxy-pyridin-3-yl)-2-methyl-propionamide], “agonistic activity”.

Consider `CC(C)(C(=O)Nc1nc(-c2ccc(F)c(F)c2)cs1)S(=O)(=O)c1ccc(Cl)cc1` [2-(4-Chloro-benzenesulfonyl)-N-[4-(3,4-difluoro-phenyl)-thiazol-2-yl]-2-methyl-propionamide], for which the agonistic activity entry is listed as “agonistic activity”. The same measure for `CC(C)(C(=O)Nc1nc(-c2ccc(Cl)cc2)cs1)S(=O)(=O)c1ccc(Cl)cc1` [2-(4-Chloro-benzenesulfonyl)-N-[4-(4-chloro-phenyl)-thiazol-2-yl]-2-methyl-propionamide]: “agonistic activity”; for `CC(C)(C(=O)Nc1cc2ccccc2cn1)S(=O)(=O)c1ccc(Cl)cc1` [2-(4-Chloro-benzenesulfonyl)-N-isoquinolin-3-yl-2-methyl-propionamide]: “agonistic activity”; for `CC(C)(C(=O)Nc1ccc(C(F)(F)F)cn1)S(=O)(=O)c1ccc(C#N)cc1F` [2-(4-Cyano-2-fluoro-benzenesulfonyl)-2-methyl-N-(5-trifluoromethyl-pyridin-2-yl)-propionamide]: “agonistic activity”. On to `CC(C)(C(=O)Nc1ccc(C(F)(F)F)cn1)S(=O)(=O)c1ccc(C#N)cc1` [2-(4-Cyano-benzenesulfonyl)-2-methyl-N-(5-trifluoromethyl-pyridin-2-yl)-propionamide], for which the agonistic activity entry was “agonistic activity”.
